Source: patent publication US20120270844A1, “METHODS FOR TREATING ALZHEIMER'S DISEASE” (aFRAXis, Inc., priority 2009, published 2012)

Columns and labels:
Format in all cases: biochemical
PAK3 = PAK3 (Homo sapiens, UniProt O75914); assay: Z'Lyte fluorescence-based (FRET) PAK kinase assay, PAK3; details: 100 μM ATP
Method: (§1) A fluorescence-based assay format is used to determine IC50 values of test compounds in vitro. Purified PAK kinase is incubated with ATP, and a test compound at various concentrations and a substrate peptide containing two fluorophores. In a second step, the reaction mix is incubated with a site-specific protease that cleaves non-phosphorylated bat not phosphorylated substrate peptide, disrupting the FRET signal generated by the two fluorophores in the cleaved peptide (Z′Lyte™ Kinase assay platform; Life Technologies).
(§2) Reagents: 50 mM HEPES, pH 7.5; 0.01% BRIJ-35; […]; 1 mM EGTA, 2 uM substrate peptide Ser/Thr20 (proprietary Life Technologies Sequence), PAK enzyme [2.42-30.8 ng for PAK1, 0.29-6 ng for PAK2, 1.5-20 ng for PAK3 and 0.1-0.86 ng for PAK4; actual enzyme amounts depend on lot activity of the enzyme preparation]
(§3) Test compounds are dissolved in DMSO at various concentrations; the final DMSO concentration in the assay reaction is 1%.
(§4) ATP concentration at […] apparent is used in the assay [50 ┌M ATP for PAK1 assay, 75 ┌M ATP for PAK2 assay, 100 μM ATP for PAK3 assay, 5 μM ATP for PAK4 assay] in a total assay volume of 10 μl. Assay reactions are incubated at room temperature for 1 hr. Following the kinase reaction, 5 μl of 1:256 dilution of development solution A (Life Technologies) is added and the reaction mix is incubated for an additional 1 hr at room temperature.
(§5) Plates are analyzed in a standard fluorescence plate reader (Tecan or equivalent) using an excitation wavelength of 400 nn and emission wavelengths of 445 nm and 520 nm.
(§6) Inhibition of kinase reaction is determined by emission ratio=emission@445 nm/emission@520 nm
(§7) A fluorescence-based assay format is used to determine IC50 values of test compounds in vitro. Purified PAK kinase is incubated with ATP, and a test compound at various concentrations and a substrate peptide containing two fluorophores. In a second step, the reaction mix is incubated with a site-specific protease that cleaves non-phosphorylated but not phosphorylated substrate peptide, disrupting the FRET signal generated by the two fluorophores in the cleaved peptide (Z'Lyte™ Kinase assay platform Life Technologies).
(§8) Reagents: 50 mM HEPES, pH 7.5; 0.01% BRIJ-35; 10 mM MgCl2; 1 mM EGTA, 2 uM substrate peptide Ser/Thr20 (proprietary Life Technologies Sequence), PAK enzyme [2.42-30.8 ng for PAK1, 0.29-6 ng for PAK2, 1.5-20 ng for PAK3 and 0.1-0.86 ng for PAK4; actual enzyme amounts depend on lot activity of the enzyme preparation]
(§9) ATP concentration at Km apparent is used in the assay [50 μMATP for PAK1 assay, 75 µM ATP for PAK2 assay, 100 μM ATP for PAK3 assay, 5 μM ATP for PAK4 assay] in a total assay volume of […] Assay reactions are incubated at room temperature for 1 hr. Following the kinase reaction. […] of 1:256 dilution of development solution A (Life Technologies) is added and the reaction mix is incubated for an additional 1 hr at room temperature.
(§10) Plates are analyzed in a standard fluorescence plate reader (Teem or equivalent) using an excitation wavelength of 400 nm and emission wavelengths of 445 nm and 520 nm.

PAK4 = PAK4 (Homo sapiens, UniProt O96013); assay: Z'Lyte fluorescence-based (FRET) PAK kinase assay, PAK4; details: 5 μM ATP
PAK4, sequence (O96013 whole entry): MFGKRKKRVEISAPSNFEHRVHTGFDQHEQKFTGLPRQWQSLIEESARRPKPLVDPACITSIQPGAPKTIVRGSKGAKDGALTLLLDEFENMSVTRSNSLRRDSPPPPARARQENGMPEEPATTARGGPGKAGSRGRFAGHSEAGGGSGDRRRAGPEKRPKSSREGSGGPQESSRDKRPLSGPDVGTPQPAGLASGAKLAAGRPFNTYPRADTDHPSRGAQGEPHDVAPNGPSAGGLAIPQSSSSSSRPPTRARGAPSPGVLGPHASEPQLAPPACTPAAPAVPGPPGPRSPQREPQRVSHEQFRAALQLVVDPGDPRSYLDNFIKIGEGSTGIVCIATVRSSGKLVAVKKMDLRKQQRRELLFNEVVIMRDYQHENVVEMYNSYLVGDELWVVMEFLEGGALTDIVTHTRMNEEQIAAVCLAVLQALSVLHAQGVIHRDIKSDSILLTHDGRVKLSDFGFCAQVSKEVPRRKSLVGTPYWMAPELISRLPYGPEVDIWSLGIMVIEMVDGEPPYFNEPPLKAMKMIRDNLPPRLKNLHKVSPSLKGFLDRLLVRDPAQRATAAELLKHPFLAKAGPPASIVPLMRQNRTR
Method: as §1, §2, §3, §4, §5, §6, §7, §8, §9, §10

PAK2 = PAK2 (Homo sapiens, UniProt Q13177); assay: Z'Lyte fluorescence-based (FRET) PAK kinase assay, PAK2
PAK2, sequence (Q13177 whole entry): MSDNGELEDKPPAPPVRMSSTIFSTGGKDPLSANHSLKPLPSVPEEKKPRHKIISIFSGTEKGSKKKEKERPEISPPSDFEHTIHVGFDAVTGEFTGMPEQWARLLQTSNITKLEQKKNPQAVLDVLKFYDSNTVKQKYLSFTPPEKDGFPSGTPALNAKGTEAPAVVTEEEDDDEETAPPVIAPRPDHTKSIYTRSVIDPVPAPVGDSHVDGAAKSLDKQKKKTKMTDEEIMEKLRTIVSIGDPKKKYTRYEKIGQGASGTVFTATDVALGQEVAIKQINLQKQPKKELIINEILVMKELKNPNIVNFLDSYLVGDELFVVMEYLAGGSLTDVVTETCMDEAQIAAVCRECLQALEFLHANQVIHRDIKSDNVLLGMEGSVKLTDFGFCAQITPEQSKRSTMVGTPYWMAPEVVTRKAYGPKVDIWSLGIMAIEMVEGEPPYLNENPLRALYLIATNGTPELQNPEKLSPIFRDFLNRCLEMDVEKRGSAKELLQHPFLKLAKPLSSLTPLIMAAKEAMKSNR
Method: as §1, §2, §3, §4, §5, §6, §7, §8, §9, §10

PAK1 = PAK1 (Homo sapiens, UniProt Q13153); assay: Z'Lyte fluorescence-based (FRET) PAK kinase assay, PAK1; details: 50 μM ATP
PAK1, sequence (Q13153 whole entry): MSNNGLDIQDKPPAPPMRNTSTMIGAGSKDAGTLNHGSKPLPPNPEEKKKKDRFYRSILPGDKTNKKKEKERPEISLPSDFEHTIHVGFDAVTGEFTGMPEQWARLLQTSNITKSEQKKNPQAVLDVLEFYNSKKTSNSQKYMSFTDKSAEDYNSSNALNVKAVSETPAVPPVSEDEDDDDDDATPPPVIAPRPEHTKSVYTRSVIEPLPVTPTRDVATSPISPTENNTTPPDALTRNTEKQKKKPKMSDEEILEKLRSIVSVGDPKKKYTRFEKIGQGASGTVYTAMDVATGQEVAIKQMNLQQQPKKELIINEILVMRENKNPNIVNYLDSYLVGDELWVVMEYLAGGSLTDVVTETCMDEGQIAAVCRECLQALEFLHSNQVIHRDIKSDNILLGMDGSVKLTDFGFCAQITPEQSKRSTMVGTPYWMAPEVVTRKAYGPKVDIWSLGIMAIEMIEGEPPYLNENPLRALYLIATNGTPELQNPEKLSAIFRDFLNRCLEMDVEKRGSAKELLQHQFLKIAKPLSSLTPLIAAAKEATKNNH
Method: as §1, §2, §3, §4, §5, §6, §7, §8, §9, §10

[1] = Table 1 of Example 100, 75 μM ATP
[2] = Table 1 of Example 29 (own compound numbering)
[3] = Table 1 of Example 29 (own compound numbering), 75 µM ATP

PAK3, sequence (O75914 whole entry): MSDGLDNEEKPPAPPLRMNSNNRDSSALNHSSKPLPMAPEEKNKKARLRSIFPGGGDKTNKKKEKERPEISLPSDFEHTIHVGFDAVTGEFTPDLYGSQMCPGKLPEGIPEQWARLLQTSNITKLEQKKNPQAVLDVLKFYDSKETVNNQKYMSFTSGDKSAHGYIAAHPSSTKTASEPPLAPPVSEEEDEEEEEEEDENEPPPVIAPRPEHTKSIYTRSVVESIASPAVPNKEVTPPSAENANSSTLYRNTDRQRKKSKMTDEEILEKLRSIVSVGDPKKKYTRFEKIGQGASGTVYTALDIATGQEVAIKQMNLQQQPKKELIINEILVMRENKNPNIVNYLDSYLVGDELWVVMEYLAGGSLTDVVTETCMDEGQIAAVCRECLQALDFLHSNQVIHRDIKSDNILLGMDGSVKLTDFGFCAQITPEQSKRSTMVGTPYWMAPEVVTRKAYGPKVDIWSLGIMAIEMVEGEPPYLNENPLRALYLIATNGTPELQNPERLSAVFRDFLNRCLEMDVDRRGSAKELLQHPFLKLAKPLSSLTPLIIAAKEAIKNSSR

SMILES | IC50 (PAK3; Table 1 of Example 100) [nM] | IC50 (PAK4; Table 1 of Example 100) [nM] | IC50 (PAK2; [1]) [nM] | IC50 (PAK1; Table 1 of Example 100) [nM] | IC50 (PAK3; [2]) [nM] | IC50 (PAK4; [2]) [nM] | IC50 (PAK1; [2]) [nM] | IC50 (PAK2; [3]) [nM]
CN1CCN(c2ccc(Nc3ncc4ccc(=O)n(C5CCCC5)c4n3)cc2)CC1 [Compound 1] | 1000 to 10000 | 1000 to 10000 | 1000 to 10000 | < 1000 |  |  |  | 
CN1CCN(c2ccc(Nc3ncc4ccc(=O)n(C5CCCc6ccccc65)c4n3)cc2)CC1 (stereo not drawn) [Compound 5] | 1000 to 10000 | 1000 to 10000 | 1000 to 10000 | 1000 to 10000 |  |  |  | 
CN1CCN(c2ccc(Nc3ncc4ccc(=O)n(C5CCc6ccccc65)c4n3)cc2)CC1 (stereo not drawn) [Compound 6] | 1000 to 10000 | 1000 to 10000 | 1000 to 10000 | < 1000 |  |  |  | 
O=c1ccc2cnc(Nc3ccc(NC4CCCNC4)cc3)nc2n1Cc1ccccc1C(F)(F)F (stereo not drawn) [Compound 7] | < 1000 | < 1000 | < 1000 | < 1000 |  |  |  | 
O=c1ccc2cnc(Nc3ccc(NC4CCNCC4)cc3)nc2n1Cc1ccccc1C(F)(F)F [Compound 8] | < 1000 | < 1000 | < 1000 | < 1000 |  |  |  | 
O=c1ccc2cnc(Nc3ccc(N4CCNCC4)cc3)nc2n1Cc1ccccc1C(F)(F)F [Compound 9] | < 1000 | < 1000 | < 1000 | < 1000 |  |  |  | 
CN1CCN(c2ccc(Nc3ncc4ccc(=O)n([C@@H]5CCCc6ccccc65)c4n3)cc2)CC1 [Compound 10] | 1000 to 10000 | 1000 to 10000 | 1000 to 10000 | 1000 to 10000 |  |  |  | 
O=c1ccc2cnc(Nc3ccc(OC4CCNCC4)cc3)nc2n1Cc1ccccc1C(F)(F)F [Compound 12] | < 1000 | < 1000 | < 1000 | < 1000 |  |  |  | 
CN(c1ccc(Nc2ncc3ccc(=O)n(Cc4ccccc4C(F)(F)F)c3n2)cc1)C1CCCNC1 (stereo not drawn) [Compound 13] | < 1000 | < 1000 | < 1000 | < 1000 |  |  |  | 
O=c1ccc2cnc(Nc3ccc(OC4CCCNC4)cc3)nc2n1Cc1ccccc1C(F)(F)F (stereo not drawn) [Compound 14] | < 1000 | < 1000 | < 1000 | < 1000 |  |  |  | 
CN1CCN(c2ccc(Nc3ncc4ccc(=O)n(Cc5ccccc5Cl)c4n3)cc2)CC1 [Compound 31] |  | 1000 to 10000 | < 1000 | < 1000 |  |  |  | 
COc1cccc(Cn2c(=O)ccc3cnc(Nc4ccc(N5CCN(C)CC5)cc4)nc32)c1 [Compound 33] |  | > 10000 | > 10000 | 1000 to 10000 |  |  |  | 
COc1ccccc1Cn1c(=O)ccc2cnc(Nc3ccc(N4CCN(C)CC4)cc3)nc21 [Compound 34] |  | 1000 to 10000 | 1000 to 10000 | < 1000 |  |  |  | 
CN1CCN(c2ccc(Nc3ncc4ccc(=O)n(Cc5ccccc5F)c4n3)cc2)CC1 [Compound 35] |  | 1000 to 10000 | 1000 to 10000 | 1000 to 10000 |  |  |  | 
CN1CCN(c2ccc(Nc3ncc4ccc(=O)n(Cc5ccccn5)c4n3)cc2)CC1 [Compound 36] |  | 1000 to 10000 | > 10000 | 1000 to 10000 |  |  |  | 
CN1CCN(c2ccc(Nc3ncc4ccc(=O)n(Cc5ccncc5)c4n3)cc2)CC1 [Compound 37] |  | > 10000 | > 10000 | 1000 to 10000 |  |  |  | 

SMILES | IC50 (PAK3; Table 1 of Example 100) [nM] | IC50 (PAK4; Table 1 of Example 100) [nM] | IC50 (PAK2; [1]) [nM] | IC50 (PAK1; Table 1 of Example 100) [nM] | IC50 (PAK3; [2]) [nM] | IC50 (PAK4; [2]) [nM] | IC50 (PAK1; [2]) [nM] | IC50 (PAK2; [3]) [nM]
CN1CCN(c2ccc(Nc3ncc4ccc(=O)n(Cc5cccnc5)c4n3)cc2)CC1 [Compound 38] |  | > 10000 | > 10000 | 1000 to 10000 |  |  |  | 
Cc1ccccc1Cn1c(=O)ccc2cnc(Nc3ccc(N4CCN(C)CC4)cc3)nc21 [Compound 39] |  | 1000 to 10000 | < 1000 | < 1000 |  |  |  | 
CN1CCN(c2ccc(Nc3ncc4ccc(=O)n(Cc5ccccc5C#N)c4n3)cc2)CC1 [Compound 40] |  | 1000 to 10000 | < 1000 | < 1000 |  |  |  | 
CN1CCN(c2ccc(Nc3ncc4ccc(=O)n(Cc5ccccc5OC(F)(F)F)c4n3)cc2)CC1 [Compound 41] |  | 1000 to 10000 | < 1000 | < 1000 |  |  |  | 
CN1CCN(c2ccc(Nc3ncc4ccc(=O)n(Cc5c(F)cccc5C(F)(F)F)c4n3)cc2)CC1 [Compound 112] |  |  |  |  | < 1000 | < 1000 | < 1000 | 
O=c1ccc2cnc(Nc3ccc(N4CCNCC4)c(F)c3)nc2n1Cc1c(Cl)cccc1C1CC1 [Compound 137] |  |  |  |  | < 1000 | 1000 to 10000 | < 1000 | 
CSc1cccc(F)c1Cn1c(=O)ccc2cnc(Nc3ccc(N4CCN(C)CC4)cc3)nc21 [Compound 138] |  |  |  |  | < 1000 | < 1000 | < 1000 | 
CN1CCN(c2ccc(Nc3nccc(-c4ccc(O)nc4)n3)cc2)CC1 [Compound 143] |  |  |  |  |  | > 10000 | 1000 to 10000 | > 10000
Cc1cc(Nc2nccc(-c3ccc(NCCN)nc3)n2)ccc1N1CCN(C)CC1 [Compound 152] |  |  |  |  | 1000 to 10000 | < 1000 | < 1000 | 
O=c1c(-c2ccccc2)cc2cnc(Nc3ccc(N4CCNCC4)cc3)nc2n1Cc1ccccc1C(F)(F)F [Compound 163] |  |  |  |  | < 1000 | 1000 to 10000 | < 1000 | 
CN1CCN(c2ccc(Nc3ncc4ccc(=O)n(Cc5c(F)cccc5C(F)(F)F)c4n3)cc2)CC1 [compound 58] | < 1000 | < 1000 |  | < 1000 |  |  |  | 
CN1CCN(c2ccc(Nc3ncc4ccc(=O)n(Cc5ccccc5)c4n3)cc2)CC1 [compound 80] |  |  |  |  |  | > 10000 | 1000 to 10000 | 1000 to 10000
Cc1cc(Nc2nccc(-c3ccc(NCCN)nc3)n2)ccc1N1CCN(C)CC1 [compound 83] | 1000 to 10000 | < 1000 |  | < 1000 |  |  |  | 
O=c1c(-c2ccccc2)cc2cnc(Nc3ccc(N4CCNCC4)cc3)nc2n1Cc1ccccc1C(F)(F)F [compound 94] | < 1000 | 1000 to 10000 |  | < 1000 |  |  |  | 
CN1CCN(c2ccc(Nc3ncc4ccc(=O)n(Cc5ccccc5OC(F)(F)F)c4n3)cc2)CC1 [compound 97] |  |  |  |  | < 1000 | < 1000 |  | 
CSc1cccc(F)c1Cn1c(=O)ccc2cnc(Nc3ccc(N4CCN(C)CC4)cc3)nc21 [compound 99] | < 1000 | < 1000 |  | < 1000 |  |  |  | 
